# Laboratory results from PubChem BioAssay (NCI).
# Values joined by “and” are separate entries in the source; they are usually repeats but may differ in a detail not shown here. Identical values can stand only once.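 96-well plates; 48 h exposure; 5 concentrations. Endpoints by linear interpolation between flanking doses. Not reached: highest tested concentration assigned. At the GI50, growth is halved. Definition used: TGI = concentration required for complete inhibition of growth.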
# Test system: MDA-MB-468 breast
# Assay: NCI anticancer screen, dose series, 48 h
SMILES,GI50,TGI
COc1ccc(Cn2cc3c(c2-c2cc(OC)c(OC)c(OC)c2)CCc2cnoc2-3)cc1[N+](=O)[O-],0.376 µM,4.22 µM
CCOC(=O)Nc1ccc(-c2nc(-c3cccc(OC)c3)c(-c3ccnc(Br)c3)[nH]2)cc1,1.67 µM,4.91 µM
CS(=O)(=O)CCNCc1ccc(-c2ccc3ncnc(Nc4ccc(OCc5ccccc5)c(Cl)c4)c3c2)o1,0.0107 µM,0.196 µM
COc1ccc(-c2nc3cc(Cl)c(Cl)cc3n2CC(=O)N=Nc2c(O)[nH]c3ccc(Cl)cc23)cc1,1.7 µM,3.4 µM
Nc1c(C(=O)Nc2ccccc2F)sc2nc3c(cc12)C(=O)CCC3,0.247 µM,0.956 µM
O=C(OCc1ccc2c(Cl)cc(Cl)c(O)c2n1)c1cc2ccccc2[nH]1,0.238 µM,0.626 µM
COc1ccc(C(=O)c2cc3c(N)c(C(=O)Nc4cccc(Cl)c4C)sc3nc2C)cc1,0.0707 µM,1.22 µM
CCN1C(=O)N(c2ccccc2)C2NN=c3s/c(=C4\C(=O)N(C(C)C)c5ccccc54)c(=O)n3C21 (centres undefined),0.817 µM,4.18 µM
COc1ccc(-c2cc(-c3cc(OC)c(OC)c(OC)c3)c(C#N)c(N3CCOCC3)n2)cc1O,13.4 µM,> 100 µM
CC(=O)OCC1O[C@@H]([S-])C(OC(C)=O)[C@H](OC(C)=O)[C@@H]1OC(C)=O.[Au+].c1ccc(CN2[CH-]N(Cc3ccccc3)C(c3ccccc3)=C2c2ccccc2)cc1,1.54 µM,3.26 µM
CC1=C[S+](c2ccccc2)c2cccc3cc4ccccc4c1c23 (centres undefined),0.0785 µM,0.766 µM
CCC1CCc2nc3sc(C(=O)Nc4ccccc4C)c(N)c3cc2C1 (centres undefined),0.244 µM,0.742 µM
N[C@@H]1CCCN(c2c(/C=C3\SC(=O)NC3=O)cccc2-c2ccccc2)C1,9.54 µM,24.5 µM
C/C(=C\c1ccc(Cl)c(Cl)c1)[N+](=O)[O-],1.55 µM,3.02 µM
CCCCn1sc(=O)n(Cc2ccc(CNC(=O)OCc3ccc4c(Br)cc(Br)c(O)c4n3)cc2)c1=O,0.388 µM,> 100 µM
CN(C[C@@H]1COCCO1)S(=O)(=O)Nc1ccc2ccc3ncc(-c4cnn(C)c4)cc3c(=O)c2c1,7.13 µM,> 100 µM
CCCCCc1ccc(S(=O)(=O)N(C(C)=O)c2cccc(-c3csc(N(CCN4CCN(C)CC4)C(C)=O)n3)c2)cc1,0.735 µM,2.71 µM
Cc1c(NC(=O)OC[C@@H]2COCCN2)cn2ncnc(Nc3ccc4c(cnn4Cc4cccc(F)c4)c3)c12,0.12 µM and 0.0454 µM,1.12 µM and 0.329 µM
C/C(Cc1ccc(Cl)cc1)=C(/c1ccc(Cl)cc1)c1ccc(OCCN(C)C)cc1,2.97 µM,7.76 µM
CCCCCCCC(=O)SCC/C=C/[C@@H]1CC(=O)NCc2nc(co2)C2=N[C@@](C)(CS2)C(=O)N[C@@H](C(C)C)C(=O)O1,0.0291 µM,23.5 µM
CNCCCNc1nc2ccccc2c2c(=O)c3cc(Cl)ccc3sc12,1.26 µM,2.83 µM

SMILES,GI50,TGI
CCCCCc1ccc(S(=O)(=O)Nc2cc(-c3csc(NC(=O)CN4CCN(C)CC4)n3)ccc2OC)cc1,0.917 µM,2.11 µM
C=C1C(=O)O[C@H]2[C@H]1CC/C(COC(=O)c1ccc(C#N)cc1)=C\CC[C@@]1(C)O[C@@H]21,1.03 µM,3.13 µM
CC(=O)[O][Hg][c]1ccccc1,0.154 µM,0.341 µM
O=C1CCc2c(sc3[nH]c(=S)n(Cc4ccccc4)c(=O)c23)C1,2.95 µM,9.31 µM
C#CCOc1cccc(Nc2ncnc3ccc(NC(=O)CCl)cc23)c1,3.16 µM,27.2 µM
COc1cccc(C2C3=C(COC3=O)Oc3cc4c(cc32)OCO4)c1 (centres undefined),0.0817 µM,> 100 µM
COc1cnc2c(c1)C(=O)c1c-2n(CCCN2CCCC2)c(=O)c2cc(F)ccc12,0.175 µM,0.517 µM
CN(CCCl)c1ccc(/C=C/C2=[N+](C)c3ccccc3C2(C)C)cc1,0.353 µM,1.69 µM
COc1cc2nc3cc([N+](=O)[O-])ccc3c(NCCCNCC(C)(C)O)c2cc1OC,0.23 µM,0.57 µM
c1ccc(Cn2c(-c3ccc(OC[C@H](C4CCNCC4)n4c(-c5ccccc5)nc5ccccc54)cc3)nc3ccccc32)cc1,1.12 µM,2.46 µM
Cc1nc2n(c(=O)c1CCN1CCC(c3noc4cc(F)ccc34)CC1)CCCC2,34 µM,> 50 µM
O=C(O)c1ccc2c(c1)nc(Nc1cccc(Cl)c1)c1ccncc12,1.05 µM and 1.67 µM,4.84 µM and 8.97 µM
Cc1ccc(S(=O)(=O)Cc2nc(-c3ccc(C(=O)NCc4cccnc4)cc3)oc2C)cc1,4.74 µM,> 100 µM
COc1ccccc1S(=O)(=O)Nc1ccc2c(c1)CN(C)C(=O)N2,2.4 µM and 1.44 µM,> 56.1 µM and 50.3 µM
CCOC(=O)c1cc2c(n1Cc1ccccc1)-c1oncc1CC2,2.19 µM,7.76 µM
COc1ccc(C(=O)COc2cccc(/C=C3\CSc4ccc(C)cc4C3=O)c2)cc1,4.84 µM,36.9 µM
C#Cc1cccc(Nc2nc3ccc([N+](=O)[O-])cc3nc2Nc2cccc(C#C)c2)c1,0.174 µM,0.499 µM
O=[N+]([O-])c1ccc2ncccc2c1Cl,1.87 µM,4.81 µM
O=C(CCCCCCSc1nc(-c2ccc(Cl)cc2)cc(-c2ccc(Cl)cc2)n1)NO,1.62 µM,6.38 µM
O=C(O)C1(Cc2cccc(Nc3nccs3)n2)CCC(Oc2cccc(Cl)c2F)CC1 (centres undefined),0.526 µM,34.6 µM
CCCSC1=NC2C(N(CC)C(=O)N2CC)N1/N=C/C=C/c1ccccc1[N+](=O)[O-] (centres undefined),3.06 µM,> 100 µM
